PubChem BioAssay AID1919016 (Molecular Pharmacology Branch, DTP, NCI, 2023)
Values joined by “and” are separate entries in the source; they are usually repeats but may differ in a detail not shown here. Identical values can stand only once. Blank lines part the entries; values can stand above or below the molecule they belong to.

Test system: NCI-H196 complex spheroid growth, percent test/control
Assay: Anticancer human tumor NCI-H196 cell line growth inhibition [AhR];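 further: seven days of drug exposure starting three days after plating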;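 on viability, T/C: 100% = DMSO vehicle control wells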
Conditions: for viability, T/C: stronger effect = lower value
Excerpt: Multicellular complex tumor spheroid response to aryl hydrocarbon receptor antagonists in combination with a variety of drugs and investigational agents in selected tumor cell lines
The current study was undertaken to assess response to aryl hydrocarbon receptor antagonists in combination with standard-of-care drugs and investigational agents in solid tumor complex spheroid models. Complex spheroids include a stromal component modeled by human endothelial cells (HUVEC) and fibroblasts modeled by human mesenchymal stem cells (MSCs). The concentration ranges selected for each drug and investigational agent were based upon clinically achievable concentrations if the clinical Cmax of the agent was known.
Compounds. The drugs and investigational agents: BAY 2416964 (NSC825713), GNF351 (NSC835774), CH-223191 (NSC835775), CPI-455 (NSC825282), aza-TdCyd (NSC777586), decitabine (NSC127716), belinostat (NSC758774), entinostat (NSC756642), pevonedistat (NSC761192), tazemetostat (NSC777109), talazoparib (NSC765396), olaparib (NSC753686), selinexor (NSC780203), nedisertib (M3814, NSC802822), bortezomib (NSC756655), venetoclax (NSC766270), doxorubicin (NSC123127), elimusertib (BAY189344, NSC800525), ceralasertib (AZD6738, NSC777638), TAK-243 (NSC785004), alisertib (NSC759677), etoposide (NSC141540), topotecan (NSC609699), eribulin (NSC707389), gemcitabine (NSC613327), carboplatin (NSC241240), cisplatin (NSC119875), and SN-38 (NSC673596) were obtained from the National Cancer Institute (NCI) Developmental Therapeutics Program Chemical Repository (32). The FDA-approved anticancer drug set is available from the Developmental Therapeutics Program at https://dtp.cancer.gov/organization/dscb/obtaining/available plates.htm. […] The stock solutions were prepared in dimethyl sulfoxide (DMSO, Sigma-Aldrich, St. Louis, MO, cat. D2650), except for the platinum compounds which were prepared in saline (Quality Biological, Gaithersburg, MD, cat. 114-055-101), at 800-fold the tested concentration and stored at -70 degrees C prior to their use. All drugs and investigational agents were tested over a range starting from a high concentration at or near the clinical Cmax and decreasing in half-log increments. If the clinical Cmax for an agent had not been determined, the highest concentration tested was 10 microM (Table 1).
Cell Culture. All cells were maintained in an incubator at 37 degrees C and 5% CO2 with 95% humidity. The PDC lines were cultured according to standard operating procedures established by the NCI PDMR (https://pdmr.cancer.gov). Briefly, all PDCs were thawed and cultured in Matrigel-coated flasks prepared with a working solution of 1X Ham's F-12 nutrient mix, without supplementation (Invitrogen, Waltham, MA, cat. 11765054), 100 U/mL penicillin-streptomycin (Invitrogen, cat. 15140122), and 2.5% Matrigel (Corning Inc., Corning, NY, cat. 354248) for the first three passages. All PDCs were cultured in complete DMEM/F-12 media containing advanced DMEM/F-12 (Invitrogen, cat. 12634028), 4.9% defined fetal bovine serum, heat inactivated (HyClone Laboratories Inc., Logan, UT, cat. SH30070.03HI), 389 ng/mL hydrocortisone (Sigma-Aldrich, cat. H4001), 9.7 ng/mL human EGF recombinant protein (Invitrogen, cat. PHG0313), 23.4 microg/mL adenine (Sigma-Aldrich, cat. A2786), 97.3 U/mL penicillin-streptomycin (Invitrogen, cat. 15140122), 1.9 mM L-glutamine (Invitrogen, cat. 25030081), and 9.7 microM Y-27632 dihydrochloride (Tocris Bioscience, Bristol, United Kingdom, cat. 1254). The PDCs were cultured in complete DMEM/F12 media without 10 microM Y-27632 dihydrochloride for at least two passages prior to the screen. The established cell lines NCI-H1341 and […] were cultured in DMEM/F-12, HEPES (Invitrogen, cat. 11330032), 5% defined fetal bovine serum (HyClone Laboratories Inc., cat. SH30070.03), ITS premix universal culture supplement [insulin (5 microg/mL), transferrin (5 microg/mL), and selenious acid (5 ng/mL)] […]

IC50 (curve of first compound, second compound 0.1 µM): > 3 µM | IC50 (curve of first compound, second compound 0.316 µM): > 3 µM | IC50 (curve of first compound, second compound 1 µM): > 3 µM | IC50 (curve of first compound, second compound 3.16 µM): > 3 µM | IC50 (curve of first compound, second compound 10 µM): > 3 µM
SMILES: CCN(c1cc(-c2ccc(CN3CCOCC3)cc2)cc(C(=O)NCc2c(C)cc(C)[nH]c2=O)c1C)C1CCOCC1 + CC(CO)NC(=O)c1cc(-c2ccc(Cl)cc2)nn(-c2cnn(C)c2)c1=O
viability, T/C (second compound 0.1 µM, first compound 0.00949 µM): 111% | viability, T/C (second compound 0.1 µM, first compound 0.03 µM): 111% | viability, T/C (second compound 0.1 µM, first compound 0.0949 µM): 105% | viability, T/C (second compound 0.1 µM, first compound 0.3 µM): 108% | viability, T/C (second compound 0.1 µM, first compound 0.949 µM): 111% | viability, T/C (second compound 0.1 µM, first compound 3 µM): 107% | viability, T/C (second compound 0.316 µM, first compound 0.00949 µM): 123% | viability, T/C (second compound 0.316 µM, first compound 0.03 µM): 118% | viability, T/C (second compound 0.316 µM, first compound 0.0949 µM): 105% | viability, T/C (second compound 0.316 µM, first compound 0.3 µM): 111% | viability, T/C (second compound 0.316 µM, first compound 0.949 µM): 118% | viability, T/C (second compound 0.316 µM, first compound 3 µM): 121% | viability, T/C (second compound 1 µM, first compound 0.00949 µM): 112% | viability, T/C (second compound 1 µM, first compound 0.03 µM): 116% | viability, T/C (second compound 1 µM, first compound 0.0949 µM): 113% | viability, T/C (second compound 1 µM, first compound 0.3 µM): 117% | viability, T/C (second compound 1 µM, first compound 0.949 µM): 118% | viability, T/C (second compound 1 µM, first compound 3 µM): 118% | viability, T/C (second compound 3.16 µM, first compound 0.00949 µM): 121% | viability, T/C (second compound 3.16 µM, first compound 0.03 µM): 112% | viability, T/C (second compound 3.16 µM, first compound 0.0949 µM): 121% | viability, T/C (second compound 3.16 µM, first compound 0.3 µM): 112% | viability, T/C (second compound 3.16 µM, first compound 0.949 µM): 123% | viability, T/C (second compound 3.16 µM, first compound 3 µM): 108% | viability, T/C (second compound 10 µM, first compound 0.00949 µM): 120% | viability, T/C (second compound 10 µM, first compound 0.03 µM): 127% | viability, T/C (second compound 10 µM, first compound 0.0949 µM): 123% | viability, T/C (second compound 10 µM, first compound 0.3 µM): 115% | viability, T/C (second compound 10 µM, first compound 0.949 µM): 115% | viability, T/C (second compound 10 µM, first compound 3 µM): 124%

IC50 (curve of compound): > 1 µM
SMILES: CC1COCCN1c1cc(-c2ccnn2C)c2ccnc(-c3ccn[nH]3)c2n1 (configuration not stated)
viability, T/C (compound 0.00316 µM): 88.9% and 98.2% and 94.9% | viability, T/C (compound 0.01 µM): 96.8% and 97.7% and 89.9% | viability, T/C (compound 0.0316 µM): 87.6% and 92.7% and 96.8% | viability, T/C (compound 0.1 µM): 70.2% and 70.5% and 75.3% | viability, T/C (compound 0.316 µM): 67% and 59.4% and 75.4% | viability, T/C (compound 1 µM): 65.5% and 56.8% and 61.1%
